The text below walks through data of ChEMBL document CHEMBL4184249, “Structural development of tetrachlorophthalimides as liver X receptor β (LXRβ)-selective agonists with improved aqueous solubility” (Bioorg Med Chem Lett, 2018).

What all share (format): cell-based
Test [1] concerns the target T1, Oxysterols receptor LXR-beta (Homo sapiens) (UniProt P55055).
T1 sequence (whole entry): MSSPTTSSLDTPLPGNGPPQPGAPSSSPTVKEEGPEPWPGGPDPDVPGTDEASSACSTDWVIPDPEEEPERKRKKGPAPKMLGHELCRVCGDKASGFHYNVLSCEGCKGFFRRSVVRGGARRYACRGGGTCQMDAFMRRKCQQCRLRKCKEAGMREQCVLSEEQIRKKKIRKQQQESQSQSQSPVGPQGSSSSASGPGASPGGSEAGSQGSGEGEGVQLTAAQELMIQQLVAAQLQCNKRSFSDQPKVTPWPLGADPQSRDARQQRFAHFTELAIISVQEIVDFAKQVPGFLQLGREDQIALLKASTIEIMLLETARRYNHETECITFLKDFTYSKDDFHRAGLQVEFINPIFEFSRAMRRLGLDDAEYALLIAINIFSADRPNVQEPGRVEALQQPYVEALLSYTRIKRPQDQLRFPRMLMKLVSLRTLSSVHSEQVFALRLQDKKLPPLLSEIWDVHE
Put plainly: Agonist activity at LXRbeta in human THP1 cells assessed as increase in ABCA1 mRNA expression at 1 uM by real-time quantitative RT-PCR method.

Test [2] has as its target T2, Retinoic acid receptor alpha (Homo sapiens) (UniProt P10276).
T2 sequence (whole entry): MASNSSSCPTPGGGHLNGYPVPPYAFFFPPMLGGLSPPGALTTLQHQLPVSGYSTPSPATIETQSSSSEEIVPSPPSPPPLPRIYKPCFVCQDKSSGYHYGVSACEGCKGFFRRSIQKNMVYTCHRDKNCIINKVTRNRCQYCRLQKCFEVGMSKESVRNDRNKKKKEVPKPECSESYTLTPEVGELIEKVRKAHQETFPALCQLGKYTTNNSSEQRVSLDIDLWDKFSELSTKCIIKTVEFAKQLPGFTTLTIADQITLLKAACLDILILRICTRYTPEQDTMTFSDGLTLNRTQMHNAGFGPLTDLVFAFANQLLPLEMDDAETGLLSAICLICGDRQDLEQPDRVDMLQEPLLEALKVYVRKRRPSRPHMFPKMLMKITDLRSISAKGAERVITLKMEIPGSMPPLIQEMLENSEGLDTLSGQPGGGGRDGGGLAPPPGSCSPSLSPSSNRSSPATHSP
Put plainly: Agonist activity at GAL4-tagged RARalpha (unknown origin) expressed in HEK293 cells co-expressing CMX-beta-galactosidase at 0.3 to 30 uM incubated for 16 hrs by luciferase reporter gene assay. For orientation: Reporter assays use an easily measured gene product as a stand-in for the process of interest.

In test [3] the target is T3, Peroxisome proliferator-activated receptor alpha (Homo sapiens) (UniProt Q07869).
T3 sequence (whole entry): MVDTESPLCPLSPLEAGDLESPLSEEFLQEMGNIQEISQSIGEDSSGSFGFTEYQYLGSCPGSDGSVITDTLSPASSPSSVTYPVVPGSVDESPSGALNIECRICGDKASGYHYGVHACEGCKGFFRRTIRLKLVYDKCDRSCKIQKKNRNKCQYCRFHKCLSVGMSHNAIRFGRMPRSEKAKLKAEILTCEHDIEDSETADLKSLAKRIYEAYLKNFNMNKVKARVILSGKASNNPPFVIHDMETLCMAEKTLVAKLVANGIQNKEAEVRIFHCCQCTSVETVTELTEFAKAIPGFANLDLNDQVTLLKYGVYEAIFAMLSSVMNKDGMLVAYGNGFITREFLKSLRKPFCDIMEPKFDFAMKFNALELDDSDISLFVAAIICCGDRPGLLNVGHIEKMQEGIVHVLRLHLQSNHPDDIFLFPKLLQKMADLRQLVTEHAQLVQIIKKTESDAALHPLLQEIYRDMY
Kind of test: Agonist activity at GAL4-tagged PPARalpha (unknown origin) expressed in HEK293 cells co-expressing CMX-beta-galactosidase at 0.3 to 30 uM incubated for 16 hrs by luciferase reporter gene assay.

The target in test [4] is T4, Oxysterols receptor LXR-alpha (Homo sapiens) (UniProt Q13133).
T4 sequence (whole entry): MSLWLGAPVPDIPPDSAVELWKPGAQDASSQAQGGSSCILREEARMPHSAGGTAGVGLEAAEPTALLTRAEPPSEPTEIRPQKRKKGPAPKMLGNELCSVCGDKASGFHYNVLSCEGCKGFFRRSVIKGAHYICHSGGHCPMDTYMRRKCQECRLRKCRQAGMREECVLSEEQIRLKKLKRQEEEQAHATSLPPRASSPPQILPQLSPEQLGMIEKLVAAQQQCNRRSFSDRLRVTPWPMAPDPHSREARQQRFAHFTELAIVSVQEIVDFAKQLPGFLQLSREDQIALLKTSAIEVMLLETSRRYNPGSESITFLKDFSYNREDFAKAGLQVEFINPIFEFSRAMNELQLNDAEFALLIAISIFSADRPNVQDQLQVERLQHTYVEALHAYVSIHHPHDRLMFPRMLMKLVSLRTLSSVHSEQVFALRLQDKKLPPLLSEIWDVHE
Put plainly: Agonist activity at human LXRalpha expressed in HEK293 cells co-expressing CMX-beta-galactosidase at 30 uM incubated for 16 hrs by luciferase reporter gene assay.

The target of test [5] is T5, Retinoic acid receptor beta (Homo sapiens) (UniProt P10826).
T5 sequence (whole entry): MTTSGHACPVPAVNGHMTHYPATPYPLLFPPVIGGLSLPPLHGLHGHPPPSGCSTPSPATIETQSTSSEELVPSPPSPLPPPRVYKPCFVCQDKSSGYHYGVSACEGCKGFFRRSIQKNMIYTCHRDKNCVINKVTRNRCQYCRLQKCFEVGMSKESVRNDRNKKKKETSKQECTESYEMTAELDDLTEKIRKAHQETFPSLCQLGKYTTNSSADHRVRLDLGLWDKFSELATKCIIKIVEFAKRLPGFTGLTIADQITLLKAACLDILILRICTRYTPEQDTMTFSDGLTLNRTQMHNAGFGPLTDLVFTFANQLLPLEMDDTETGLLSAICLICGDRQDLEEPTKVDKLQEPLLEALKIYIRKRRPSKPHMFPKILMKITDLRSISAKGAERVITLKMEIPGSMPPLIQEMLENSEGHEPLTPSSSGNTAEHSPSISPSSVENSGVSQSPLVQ
Put plainly: Agonist activity at GAL4-tagged RARbeta (unknown origin) expressed in HEK293 cells co-expressing CMX-beta-galactosidase at 0.3 to 30 uM incubated for 16 hrs by luciferase reporter gene assay.

Activity calls are given as the source filed them. The calls are words filed in the database; no cut-off is given here.

In the case of `O=C1c2c(Cl)c(Cl)c(Cl)c(Cl)c2C(=O)N1c1ccccc1/C=C/c1cccs1`, the outcome in test [1] was Active. Also, in test [2], the Efficacy worked out at 6%. For the same compound, the outcome in test [3], in test [4] and in test [5] was inactive.
